Source: article PMC5818060 (Journal of Cell Science, 2018)

Experiments:
[1] = reason given for adding Fugene HD; ref Rena et al., 2004; cited from earlier work
Protocol: Where applicable, the small-molecule CK1 inhibitor D4476 (BioVision) was added to the cells 2-4 h prior to the analysis. For each triplicate the respective volume of D4476 (in DMSO) was added together with 1 μl Fugene HD (Promega) to 60 μl serum-free medium. The solution was mixed, incubated for 15 min and added to the cells. […] In the corresponding control ...

[2] = test system: endogenous CK1 / CK1 sensor in HEK293T cells; assay: CK1 FRET biosensor, microplate reader FRET/CFP ratio; assay type: cell-based, human; conditions: HEK293T, CK1 sensor; D4476 0.4 or 2 µM in Fig. 1F-H, added 2-4 h prior to analysis; n=3
Protocol: HEK293T cells were seeded at a density of 20,000 cells/well on 96-well black microplates (PS, μClear, clear bottom, chimney well, Greiner No. 655090). Transfection was performed as described above. Unless indicated otherwise, the respective cell populations were transfected with 50-100 ng CK1 FRET biosensor, 100 ng regulator (i.e. N-Flag DDX3X) and 1-10 ng kinase (i.e. N-Flag CK1ε). Either empty pCS2 N-Flag vector or luciferase were used to transfect the same amount of DNA in every well. Generally, the different samples were run in triplicate for each individual experiment. Owing to the varying values for the FRET/CFP ratios based on transfection efficiency, cell density and the time point of analysis, we always set the FRET/CFP ratio of cells only transfected with the CK1 sensor to 1 in order to compare individual experiments. Importantly, the individual figures with the CK1 sensor represent only experiments performed on the same 96-well plate with the same cell density, transfection efficiency and time point.
Where applicable, the small-molecule CK1 inhibitor D4476 (BioVision) was added to the cells 2-4 h prior to the analysis. For each triplicate the respective volume of D4476 (in DMSO) was added together with 1 μl Fugene HD (Promega) to 60 μl serum-free medium. The solution was mixed, incubated for 15 min and added to the cells. […] In the corresponding controls an equal amount of DMSO instead of the inhibitor was added to the medium. Analysis was performed 48-60 h after transfection on an Infinite M1000 PRO microplate reader (Tecan) by exciting CFP with a wavelength of 433 nm and measuring the resulting emission at 460-600 nm in 2 nm increments. Fluorometric spectra were background subtracted with spectra recorded from wells with non-transfected cells. Resulting FRET/CFP ratios were calculated by dividing the intensity values at the respective peaks (478 nm for CFP, 528 nm for YFP) and analyzed essentially as described ([Fritz et al., 2013]). Where indicated, CK1δ/ε-derived peptides were transfected into cells using Metafectene (Biontex) 1 hour before measurements.

[3] = test system: DDX3X; assay: ATPase assay of DDX3X; assay type: biochemical, human; conditions: CK1ε pre-incubated with D4476; dsRNA-stimulated
Protocol: For the ATPase assay, Flag-tagged DDX3X full-length constructs were expressed in HEK293T cells. After purifying and eluting DDX3X from the beads, an aliquot of the eluates was resolved by SDS-PAGE in order to monitor the different DDX3X levels via western blotting and ImageJ. Based on this comparison, similar amounts of full-length DDX3X protein were used. Approximately 100 ng Flag-DDX3X protein and 10 ng His-CK1ε were used in a 60 μl reaction mix (reaction buffer: 20 mM Tris-HCl, pH 7.4, 200 mM NaCl, 0.5 mM DTT, 1 mM MgCl2, 1 mM ATP) with dsRNA (17 nM, 34 nM, 68 nM); the reaction was carried out at 37°C for 40 min. To phosphorylate DDX3X, 500 ng His-CK1εΔC or His-CK1εΔC^K38R were added in kinase buffer before eluting the DDX3X protein from the Sepharose magnetic Flag beads (Sigma). Incubation was performed at 37°C for 30 min. Then, beads were washed with 50 mM Tris-HCl, pH 7.5 and 500 mM NaCl before elution with Flag peptide. Termination of the helicase reaction was done with 10 μl of 50% TCA solution added to each reaction followed by centrifugation at 3000 g for 5 min at 4°C. Reaction mix was mixed with coloring solution (35 mM ammonium molybdate, 10 mM zinc acetate, 10% ascorbic acid, pH 5) in a 96-well plate before analysis using a spectrometer (wavelength 700 nm).

NC(=O)c1ccc(-c2nc(-c3ccc4c(c3)OCCO4)c(-c3ccccn3)[nH]2)cc1 [D4476, reference compound]
cell permeability [1]: poor cell permeability
effect of CK1 inhibitor on FRET/CFP ratio of CK1 sensor [2]: reduced as a result of the inhibitor treatment
effect of CK1 inhibitor on CK1ε-mediated inhibition of DDX3X ATPase activity [3]: prevented inhibition of the ATPase activity of DDX3X
